Source: US12077503B2, “Substituted cyclic amides and their use as herbicides” (FMC CORPORATION, priority 2015, dated 2024)

Columns and labels:
Format in all cases: in vivo
[1] = tested on: barnyardgrass (Echinochloa crus-galli); assay: Test G Pre-Emergence Protocol; conditions: Echinochloa crus-galli, pre-emergence, 312 h, evaluated after 13 days; for pest or weed control at 15.625 g/ha: 15.625 g ai/ha; for pest or weed control at 15.625 g/ha / pest or weed control at 250 g/ha: read-out: Barnyardgrass damage rating (100=total damage to plant; 0=no damage to plant); for pest or weed control at 62.5 g/ha: 62.5 g ai/ha, 100=total damage to plant, 0=no damage to plant, read-out: Barnyardgrass damage rating; for pest or weed control at 250 g/ha: 250 g ai/ha
How it was run: (§1)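 Scores are visual damage ratings from 0 (no damage) to 100 (total plant kill), taken 13 days after treatment. Compound was sprayed one day post-sowing at 15.625, 62.5 or 250 g/ha in 50:50 acetone/water with 0.5% Tween 20.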

corn (Zea mays) [2] = assay: Test G Pre-Emergence Protocol; conditions: Zea mays, pre-emergence, 312 h, evaluated after 13 days; for plant injury at 15.625 g/ha: 15.625 g ai/ha; for plant injury at 15.625 g/ha / plant injury at 250 g/ha: read-out: Corn damage rating (100=total damage to plant; 0=no damage to plant); for plant injury at 62.5 g/ha: 62.5 g ai/ha, 100=total damage to plant, 0=no damage to plant, read-out: Corn damage rating; for plant injury at 250 g/ha: 250 g ai/ha
How it was run: as §1

[3] = tested on: giant foxtail (Setaria faberi); assay: Test G Pre-Emergence Protocol; conditions: Setaria faberi, pre-emergence, 312 h, evaluated after 13 days; for pest or weed control at 15.625 g/ha: 15.625 g ai/ha; for pest or weed control at 15.625 g/ha / pest or weed control at 250 g/ha: read-out: Foxtail, Giant damage rating (100=total damage to plant; 0=no damage to plant); for pest or weed control at 62.5 g/ha: 62.5 g ai/ha, 100=total damage to plant, 0=no damage to plant, read-out: Foxtail, Giant damage rating; for pest or weed control at 250 g/ha: 250 g ai/ha
How it was run: as §1

[4] = tested on: ivy-leaved morning glory (Ipomoea hederacea); assay: Test G Pre-Emergence Protocol; conditions: Ipomoea, pre-emergence, 312 h, evaluated after 13 days; for pest or weed control at 15.625 g/ha: 15.625 g ai/ha; for pest or weed control at 15.625 g/ha / pest or weed control at 250 g/ha: read-out: Morningglory, Ivy-leaved damage rating (100=total damage to plant; 0=no damage to plant); for pest or weed control at 62.5 g/ha: 62.5 g ai/ha, 100=total damage to plant, 0=no damage to plant, read-out: Morningglory, Ivy-leaved damage rating; for pest or weed control at 250 g/ha: 250 g ai/ha
How it was run: as §1

[5] = tested on: redroot pigweed (Amaranthus retroflexus); assay: Test G Pre-Emergence Protocol; conditions: Amaranthus retroflexus, pre-emergence, 312 h, evaluated after 13 days; for pest or weed control at 15.625 g/ha: 15.625 g ai/ha; for pest or weed control at 15.625 g/ha / pest or weed control at 250 g/ha: read-out: Pigweed, Redroot damage rating (100=total damage to plant; 0=no damage to plant); for pest or weed control at 62.5 g/ha: 62.5 g ai/ha, 100=total damage to plant, 0=no damage to plant, read-out: Pigweed, Redroot damage rating; for pest or weed control at 250 g/ha: 250 g ai/ha
How it was run: as §1

[6] = tested on: velvetleaf (Abutilon theophrasti); assay: Test G Pre-Emergence Protocol; conditions: Abutilon theophrasti, pre-emergence, 312 h, evaluated after 13 days; for pest or weed control at 15.625 g/ha: 15.625 g ai/ha; for pest or weed control at 15.625 g/ha / pest or weed control at 250 g/ha: read-out: Velvetleaf damage rating (100=total damage to plant; 0=no damage to plant); for pest or weed control at 62.5 g/ha: 62.5 g ai/ha, 100=total damage to plant, 0=no damage to plant, read-out: Velvetleaf damage rating; for pest or weed control at 250 g/ha: 250 g ai/ha
How it was run: as §1

[7] = tested on: barnyardgrass (Echinochloa crus-galli); assay: Test G Post-Emergence Protocol; conditions: Echinochloa crus-galli, post-emergence, 312 h, read-out: Barnyardgrass damage rating; for pest or weed control at 15.625 g/ha: 15.625 g ai/ha, evaluated after 13 days (100=total damage to plant; 0=no damage to plant); for pest or weed control at 62.5 g/ha: 62.5 g ai/ha; for pest or weed control at 62.5 g/ha / pest or weed control at 250 g/ha: evaluated after 13 days, 100=total damage to plant, 0=no damage to plant; for pest or weed control at 250 g/ha: 250 g ai/ha
How it was run: (§2)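 Scores run 0 (no damage) to 100 (total damage) and were taken 13 days after spraying. Plants had been raised in pots for 8 days under glasshouse control (24/16 °C, 14 h photoperiod, 65% humidity) and then treated at 15.625, 62.5 or 250 g/ha.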

corn (Zea mays) [8] = assay: Test G Post-Emergence Protocol; conditions: Zea mays, post-emergence, 312 h, read-out: Corn damage rating; for plant injury at 15.625 g/ha: 15.625 g ai/ha, evaluated after 13 days (100=total damage to plant; 0=no damage to plant); for plant injury at 62.5 g/ha: 62.5 g ai/ha; for plant injury at 62.5 g/ha / plant injury at 250 g/ha: evaluated after 13 days, 100=total damage to plant, 0=no damage to plant; for plant injury at 250 g/ha: 250 g ai/ha
How it was run: as §2

[9] = tested on: giant foxtail (Setaria faberi); assay: Test G Post-Emergence Protocol; conditions: Setaria faberi, post-emergence, 312 h, read-out: Foxtail, Giant damage rating; for pest or weed control at 15.625 g/ha: 15.625 g ai/ha, evaluated after 13 days (100=total damage to plant; 0=no damage to plant); for pest or weed control at 62.5 g/ha: 62.5 g ai/ha; for pest or weed control at 62.5 g/ha / pest or weed control at 250 g/ha: evaluated after 13 days, 100=total damage to plant, 0=no damage to plant; for pest or weed control at 250 g/ha: 250 g ai/ha
How it was run: as §2

[10] = tested on: ivy-leaved morning glory (Ipomoea hederacea); assay: Test G Post-Emergence Protocol; conditions: Ipomoea, post-emergence, 312 h, read-out: Morningglory, Ivy-leaved damage rating; for pest or weed control at 15.625 g/ha: 15.625 g ai/ha, evaluated after 13 days (100=total damage to plant; 0=no damage to plant); for pest or weed control at 62.5 g/ha: 62.5 g ai/ha; for pest or weed control at 62.5 g/ha / pest or weed control at 250 g/ha: evaluated after 13 days, 100=total damage to plant, 0=no damage to plant; for pest or weed control at 250 g/ha: 250 g ai/ha
How it was run: as §2

[11] = tested on: redroot pigweed (Amaranthus retroflexus); assay: Test G Post-Emergence Protocol; conditions: Amaranthus retroflexus, post-emergence, 312 h, read-out: Pigweed, Redroot damage rating; for pest or weed control at 15.625 g/ha: 15.625 g ai/ha, evaluated after 13 days (100=total damage to plant; 0=no damage to plant); for pest or weed control at 62.5 g/ha: 62.5 g ai/ha; for pest or weed control at 62.5 g/ha / pest or weed control at 250 g/ha: evaluated after 13 days, 100=total damage to plant, 0=no damage to plant; for pest or weed control at 250 g/ha: 250 g ai/ha
How it was run: as §2

[12] = tested on: velvetleaf (Abutilon theophrasti); assay: Test G Post-Emergence Protocol; conditions: Abutilon theophrasti, post-emergence, 312 h, read-out: Velvetleaf damage rating; for pest or weed control at 15.625 g/ha: 15.625 g ai/ha, evaluated after 13 days (100=total damage to plant; 0=no damage to plant); for pest or weed control at 62.5 g/ha: 62.5 g ai/ha; for pest or weed control at 62.5 g/ha / pest or weed control at 250 g/ha: evaluated after 13 days, 100=total damage to plant, 0=no damage to plant; for pest or weed control at 250 g/ha: 250 g ai/ha
How it was run: as §2

SMILES | pest or weed control at 15.625 g/ha [1] [%] | pest or weed control at 62.5 g/ha [1] [%] | pest or weed control at 250 g/ha [1] [%] | plant injury at 15.625 g/ha (corn (Zea mays) [2]) [%] | plant injury at 62.5 g/ha (corn (Zea mays) [2]) [%] | plant injury at 250 g/ha (corn (Zea mays) [2]) [%] | pest or weed control at 15.625 g/ha [3] [%] | pest or weed control at 62.5 g/ha [3] [%] | pest or weed control at 250 g/ha [3] [%] | pest or weed control at 15.625 g/ha [4] [%] | pest or weed control at 62.5 g/ha [4] [%] | pest or weed control at 250 g/ha [4] [%] | pest or weed control at 15.625 g/ha [5] [%] | pest or weed control at 62.5 g/ha [5] [%] | pest or weed control at 250 g/ha [5] [%] | pest or weed control at 15.625 g/ha [6] [%] | pest or weed control at 62.5 g/ha [6] [%] | pest or weed control at 250 g/ha [6] [%] | pest or weed control at 15.625 g/ha [7] [%] | pest or weed control at 62.5 g/ha [7] [%] | also measured
Cc1cc(C2CN(C)C(=O)C2C(=O)Nc2cccc(F)c2F)cc(C)c1F (stereo not drawn) [Compound 1712] | 60 | 80 | 90 | 0 | 10 | 70 | 80 | 90 | 90 | 0 | 0 | 20 | 10 | 0 | 10 | 0 | 0 | 20 | 50 | 80 | pest or weed control at 250 g/ha [7]: 90%; plant injury at 15.625 g/ha (corn (Zea mays) [8]): 40%; plant injury at 62.5 g/ha (corn (Zea mays) [8]): 70%; plant injury at 250 g/ha (corn (Zea mays) [8]): 70%; pest or weed control at 15.625 g/ha [9]: 80%; pest or weed control at 62.5 g/ha [9]: 80%; pest or weed control at 250 g/ha [9]: 80%; pest or weed control at 15.625 g/ha [10]: 10%; pest or weed control at 62.5 g/ha [10]: 30%; pest or weed control at 250 g/ha [10]: 70%; pest or weed control at 15.625 g/ha [11]: 0%; pest or weed control at 62.5 g/ha [11]: 20%; pest or weed control at 250 g/ha [11]: 20%; pest or weed control at 15.625 g/ha [12]: 10%; pest or weed control at 62.5 g/ha [12]: 10%; pest or weed control at 250 g/ha [12]: 40%
CN1CC(c2cc(F)cc(OCC(F)(F)F)c2)C(C(=O)Nc2cccc(F)c2F)C1=O (stereo not drawn) [Compound 1698] | 60 | 70 | 80 | 0 | 30 | 70 | 70 | 70 | 90 | 10 | 0 | 20 | 0 | 10 | 40 | 0 | 10 | 20 | 60 | 80 | pest or weed control at 250 g/ha [7]: 80%; plant injury at 15.625 g/ha (corn (Zea mays) [8]): 20%; plant injury at 62.5 g/ha (corn (Zea mays) [8]): 70%; plant injury at 250 g/ha (corn (Zea mays) [8]): 70%; pest or weed control at 15.625 g/ha [9]: 80%; pest or weed control at 62.5 g/ha [9]: 80%; pest or weed control at 250 g/ha [9]: 80%; pest or weed control at 15.625 g/ha [10]: 10%; pest or weed control at 62.5 g/ha [10]: 70%; pest or weed control at 250 g/ha [10]: 70%; pest or weed control at 15.625 g/ha [11]: 20%; pest or weed control at 62.5 g/ha [11]: 30%; pest or weed control at 250 g/ha [11]: 60%; pest or weed control at 15.625 g/ha [12]: 0%; pest or weed control at 62.5 g/ha [12]: 10%; pest or weed control at 250 g/ha [12]: 50%
